Like-named read-outs stand apart in the source and are kept apart here.
Assays:
sigma-1 receptor = target: T1, sigma-1 receptor (Cavia porcellus, UniProt Q60492); experiment: Sigma-1 binding assay ([3H](+)-pentazocine); details: guinea pig brain membranes; for inhibition at 0.01 µM: inhibition % at 10 nM, [3H](+)-pentazocine, Table II, read-out: Sigma 1 Inhib. %; for IC50: [3H](+)-pentazocine 2.4 nM, Table I
T1 construct: their whole brains (without cerebellum) were rapidly removed and homogenized; from tissue; host or cells: guinea pig (male Hartley) whole brain without cerebellum, membrane homogenate
T1 sequence (Q60492 whole entry): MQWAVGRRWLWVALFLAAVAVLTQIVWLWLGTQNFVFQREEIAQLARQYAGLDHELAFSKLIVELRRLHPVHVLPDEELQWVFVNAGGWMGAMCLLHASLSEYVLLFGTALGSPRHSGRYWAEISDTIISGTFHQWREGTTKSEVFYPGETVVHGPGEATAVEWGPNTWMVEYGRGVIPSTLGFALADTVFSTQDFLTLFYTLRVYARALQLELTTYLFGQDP
Protocol: (§1) Sigma-1 and Sigma-2 Binding Assay Methods
(§2) Compounds of the present inventions were tested for selective binding to the sigma-1 receptor and sigma-2 receptor as modified from Chaki et al. Eur. J. Pharmacol. 1994, 251, R1. and Akunne et al., Neuropharmacology, 1997, 36(1), 51.
(§3) Tissue Homogenate Preparation for Sigma-1 Binding Assay and Sigma-2 Binding Assay
(§4) Male Hartley guinea pigs each weighing 300–400 g were used in sigma subtype binding assay. Guinea pigs were killed by decapitation and their whole brains (without cerebellum) were rapidly removed and homogenized in 25 volumes(W/V) of ice-cold 50 mM Tris-HCl buffer(pH 7.4 buffer for sigma-1 binding assay and pH 8.0 buffer for sigma-2 binding assay). The homogenate was centrifuged in 48,000×g for 10 min at 4° C. The supernatant was discarded and the resulting pellets were resuspended in the sane volume of buffer and recentrifuged as described above. The pellets were resuspended and washed twice more in the same manner as described above. The final pellets were resuspended in 10 volumes(W/V) of ice-cold 50 mM Tris-HCl buffer to enable distribution of 2 ml aliquot in microcentrifuge tube, which were used immediately or kept at −80° C. for no more than 1 month before use.
Sigma-1 Binding Assay ([^3H](+)pentazocine)
The sigma-1 selective binding assay was performed using [^3H](+)-pentazocine as the radioligand (2.4 nM final concentration unless otherwise specified) and approximately […] of guinea pig brain membranes in a final volume of […] of 50 mM TRISHCl, pH7.4. Non-specific binding was determined in the presence of […]. For the standard equilibrium assay, the mixtures were incubated for 2 hours at 25°, and rapidly filtered over Whatman GF/C glass fiber filters, followed by three 4.5 ml rinses with ice-cold incubation buffer. The filters were placed in counting vials and 4 ml scintillation solution. The vials were counted in a Beckman scintillation counter.
(§5) IC50 values for sigma-1 or -2 binding assay were calculated using KELL RADLIG v.6.0.5.

sigma-2 receptor = target: T2, sigma-2 receptor (Cavia porcellus, UniProt H0V073); experiment: Sigma-2 binding assay ([3H]DTG in the presence of (+)-SKF10047); details: guinea pig brain membranes, read-out: Sigma 2 Inhib. %
T2 construct: their whole brains (without cerebellum) were rapidly removed and homogenized; from tissue; host or cells: guinea pig (male Hartley) whole brain without cerebellum, membrane homogenate
T2 sequence (H0V073 1-176): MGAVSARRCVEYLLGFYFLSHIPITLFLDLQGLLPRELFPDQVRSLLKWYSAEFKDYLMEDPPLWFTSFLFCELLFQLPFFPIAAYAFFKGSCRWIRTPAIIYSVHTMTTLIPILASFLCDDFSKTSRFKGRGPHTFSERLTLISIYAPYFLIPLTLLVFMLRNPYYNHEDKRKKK
Protocol: as §1, §2, §3, §4
Sigma-2 Binding Assay([^3H]DTG)
The Sigma-2 selective binding assay was performed using 3.6 nM[^3H]DTG as the radioligand in the presence of 200 nM (+)-SKF10047 to block the Sigma-1 sites, with […] of guinea pig brain membranes in a total volume of 0.5 ml of 50 mM TRIS-HCl, pH8.0. Non-specific binding was determined in the presence of […]. Incubation condition and other manipulations were as described above for sigma-1 binding assay.
as §5

[1] = inhibition % at 10 nM, [3H]DTG, Table II
[2] = Inhibition % at 10 nM, [3H]DTG 3.6 nM, Table I

| SMILES | inhibition at 0.01 µM (sigma-1 receptor) | inhibition at 0.01 µM (sigma-2 receptor; [1]) | IC50 (sigma-1 receptor) | inhibition at 0.01 µM (sigma-2 receptor; [2]) |
| --- | --- | --- | --- | --- |
| CC(C)(C)c1ccc(CC(N)CN2CCC(Cc3ccccc3)CC2)cc1 (stereo not shown) | 26.1% | 38.2% |  |  |
| O=S(=O)(NC(CCN1CCC(Cc2ccccc2)CC1)c1ccccc1)c1ccccc1 (stereo not shown) | 35.6% | 11.4% |  |  |
| CNC(Cc1ccc(C(C)(C)C)cc1)CN1CCCCCC1 (stereo not shown) |  |  | 0.0025 µM | 27.4% |
| CN(C(=O)Cc1ccc(Cl)c(Cl)c1)C(Cc1ccc(C(C)(C)C)cc1)CN1CCCCCC1 (stereo not shown) |  |  | 0.0357 µM | 51.4% |
| CN(C=O)C(CCN1CCC(Cc2ccccc2)CC1)c1ccccc1 (stereo not shown) | -2% | 26.4% |  |  |
| NC(Cc1c(Cl)cccc1Cl)CN1CCCCCC1 (stereo not shown) | 33.6% | 21.7% |  |  |
| O=[N+]([O-])c1ccccc1S(=O)(=O)NC(CCN1CCC(Cc2ccccc2)CC1)c1ccccc1 (stereo not shown) | 31.6% | 3.1% |  |  |
| CC(C)(C)c1ccc(CC(N)CN2CCCCCC2)cc1 (stereo not shown) |  |  | 0.0021 µM | 55.7% |
| NC(Cc1cccc(C(F)(F)F)c1)CN1CCCCCC1 (stereo not shown) | 42.9% | 31.3% |  |  |
| O=[N+]([O-])c1ccc(S(=O)(=O)NC(CCN2CCC(Cc3ccccc3)CC2)c2ccccc2)c([N+](=O)[O-])c1 (stereo not shown) | 5.7% | 40.6% |  |  |
| NC(Cc1ccc(Cl)c(Cl)c1)CN1CCCCCC1 (stereo not shown) |  |  | 0.0121 µM | 12.5% |
| CC(C)(C)c1ccc(CC(CN2CCC(Cc3ccccc3)CC2)NC=O)cc1 (stereo not shown) | 52.7% | 6.1% |  |  |
| NC(Cc1ccc(C(F)(F)F)cc1)CN1CCCCCC1 (stereo not shown) |  |  | 0.002 µM | 43.9% |
| CNC(CCN1CCC(Cc2ccccc2)CC1)c1ccccc1 (stereo not shown) | 36.3% | 54.1% |  |  |
| CC(C)(C)c1ccc(CC(N)CCN2CCC(Cc3ccccc3)CC2)cc1 (stereo not shown) | 3.7% | 24.3% |  |  |
| NC(Cc1ccc(Cl)cc1Cl)CN1CCCCCC1 (stereo not shown) | 73.2% | 61% |  |  |
| CNC(Cc1ccc(Cl)cc1Cl)CN1CCC(Cc2ccccc2)CC1 (stereo not shown) | 75.6% | 75% |  |  |
| NC(CCN1CCC(C(=O)c2ccc(F)cc2)CC1)c1ccccc1 (stereo not shown) | -1.9% | 57.3% |  |  |
| COc1ccc(C(=O)C2CCN(CCC(N)c3ccccc3)CC2)cc1 (stereo not shown) | 3.2% | 30.9% |  |  |
| CN(C)C(CCN1CCC(Cc2ccccc2)CC1)c1ccccc1 (stereo not shown) | 20.3% | 57.7% |  |  |

| SMILES | inhibition at 0.01 µM (sigma-1 receptor) | inhibition at 0.01 µM (sigma-2 receptor; [1]) | IC50 (sigma-1 receptor) | inhibition at 0.01 µM (sigma-2 receptor; [2]) |
| --- | --- | --- | --- | --- |
| O=[N+]([O-])c1cccc(S(=O)(=O)NC(CCN2CCC(Cc3ccccc3)CC2)c2ccccc2)c1 (stereo not shown) | 45.7% | 25.7% |  |  |
| O=CNC(Cc1ccc(Cl)cc1Cl)CN1CCC(Cc2ccccc2)CC1 (stereo not shown) | 74.5% | 24.3% |  |  |
| O=CNC(CCN1CCC(Cc2ccccc2)CC1)c1ccccc1 (stereo not shown) | 28.2% | 26.3% |  |  |
| NC(CCN1CCC(C(=O)c2ccccc2)CC1)c1ccccc1 (stereo not shown) | 13.7% | 48.3% |  |  |
| Clc1ccc(CCNC(CCN2CCCCCC2)c2ccccc2)cc1Cl (stereo not shown) |  |  | 0.0102 µM | 70.2% |
| NC(CCCCN1CCCCCC1)c1ccccc1 (stereo not shown) | 9.3% | 32.5% |  |  |
| Clc1ccc(CCNC(CCN2CCC(Cc3ccccc3)CC2)c2ccccc2)cc1Cl (stereo not shown) | 28.8% | 22.6% |  |  |
| CNC(CCN1CCC(C(=O)c2ccc(F)cc2)CC1)c1ccccc1 (stereo not shown) | 25.2% | 50.5% |  |  |
| CN(C)C(Cc1ccc(C(C)(C)C)cc1)CN1CCCCCC1 (stereo not shown) |  |  | 0.0021 µM |  |
| NC(Cc1ccc(Cl)cc1)CN1CCCCCC1 (stereo not shown) |  |  | 0.0139 µM | 36.8% |
| NC(CCN1CCC(Cc2ccccc2)CC1)c1ccccc1 (stereo not shown) | 25.5% | 39.7% |  |  |
| NC(CCCN1CCCCCC1)c1ccccc1 (stereo not shown) | 7.1% | 21.6% |  |  |
| O=C(Cc1ccc(Cl)c(Cl)c1)NC(CCN1CCCCCC1)c1ccccc1 (stereo not shown) |  |  | 0.0108 µM | 27.1% |
| NC(CCN1CCC(C(=O)Cc2ccccc2)CC1)c1ccccc1 (stereo not shown) | 2.2% | 28.7% |  |  |
| CNC(Cc1ccc(Cl)c(Cl)c1)CN1CCC(Cc2ccccc2)CC1 (stereo not shown) | 66.1% | 72.7% |  |  |
| O=C(NC(CCN1CCC(Cc2ccccc2)CC1)c1ccccc1)c1ccccc1 (stereo not shown) | 44.3% | 5.2% |  |  |
| O=CNC(Cc1ccc(Cl)c(Cl)c1)CN1CCCCCC1 (stereo not shown) | 67.7% | 37.8% |  |  |
| CNC(Cc1ccc(C(C)(C)C)cc1)CN1CCC(Cc2ccccc2)CC1 (stereo not shown) | 63.2% | 57.9% |  |  |
| CC(C)(C)c1ccc(CC(CN2CCCCCC2)NCc2ccccc2)cc1 (stereo not shown) |  |  | 0.01 µM |  |

Second part, led by results:

| inhibition at 0.01 µM (sigma-1 receptor) | inhibition at 0.01 µM (sigma-2 receptor; [1]) | SMILES | IC50 (sigma-1 receptor) | inhibition at 0.01 µM (sigma-2 receptor; [2]) |
| --- | --- | --- | --- | --- |
| 57.3% | 48.3% | NC(Cc1ccc(Cl)c(Cl)c1)CN1CCC(Cc2ccccc2)CC1 (stereo not shown) |  |  |
| 10.8% | 39.6% | NC(Cc1ccc(Cl)c(Cl)c1)CN1CCC(C(=O)c2ccccc2)CC1 (stereo not shown) |  |  |
| 82.9% | 73% | N[C@@H](Cc1ccccc1)CN1CCC(C(=O)c2cccc(Cl)c2)CC1 |  |  |
| 11.2% | 16.9% | N[C@H](Cc1ccccc1)CN1CCC(C(=O)c2ccccc2)CC1 |  |  |
| 39.8% | 33.3% | N[C@@H](Cc1ccccc1)CN1CCC(C(=O)c2ccccc2)CC1 |  |  |
| 7.9% | 43.7% | NC(CCN1CCC(C(=O)c2ccc(Cl)cc2)CC1)c1ccccc1 (stereo not shown) |  |  |
| 38.9% | 50% | NC(Cc1ccc(Cl)cc1)CN1CCC(C(=O)c2ccccc2)CC1 (stereo not shown) |  |  |
| 31.1% | 48.5% | NC(Cc1ccc(Cl)cc1)CN1CCC(C(=O)c2ccc(F)cc2)CC1 (stereo not shown) |  |  |
| 15.3% | 34.7% | NC(Cc1ccc(Cl)cc1Cl)CN1CCC(C(=O)c2ccccc2)CC1 (stereo not shown) |  |  |
| 23.5% | 34.9% | NC(Cc1ccc(Cl)cc1)CN1CCC(C(=O)c2ccc(Cl)cc2)CC1 (stereo not shown) |  |  |
| 61% | 53.6% | N[C@@H](Cc1ccccc1)CN1CCC(C(=O)c2ccc(Cl)cc2)CC1 |  |  |
| 47.4% | 30% | CC(C)(C)c1ccc(CC(N)CN2CCC(C(=O)c3ccccc3)CC2)cc1 (stereo not shown) |  |  |
| 43.1% | 21.4% | N[C@@H](Cc1ccccc1)CN1CCC(C(=O)Cc2ccccc2)CC1 |  |  |
| 10.7% | 47.2% | NC(Cc1ccc(Cl)c(Cl)c1)CN1CCC(C(=O)c2ccc(Cl)c(Cl)c2)CC1 (stereo not shown) |  |  |
| 33.6% | 34% | NC(Cc1ccccc1)CN1CCC(C(=O)c2ccccc2)CC1 (stereo not shown) |  |  |
| 19.5% | 31% | COc1ccc(C(=O)C2CCN(CC(N)Cc3ccc(Cl)cc3)CC2)cc1 (stereo not shown) |  |  |
| 60.8% | 56.6% | N[C@@H](Cc1ccccc1)CN1CCC(C(=O)c2ccc(Cl)c(Cl)c2)CC1 |  |  |
| 24.7% | 51.7% | NC(Cc1ccc(Cl)cc1)CN1CCC(C(=O)c2ccc(Cl)c(Cl)c2)CC1 (stereo not shown) |  |  |
| 34.5% | 41.6% | NC(Cc1ccc(Cl)cc1)CN1CCC(C(=O)c2cccc(Cl)c2)CC1 (stereo not shown) |  |  |
| 71.9% | 39.9% | O=CNC(Cc1ccc(Cl)c(Cl)c1)CN1CCC(Cc2ccccc2)CC1 (stereo not shown) |  |  |
| 49.1% | 39.8% | COc1ccc(C(=O)C2CCN(C[C@@H](N)Cc3ccccc3)CC2)cc1 |  |  |
| 66.2% | 43.1% | CC(C)(C)c1ccc(C(=O)C2CCN(C[C@@H](N)Cc3ccccc3)CC2)cc1 |  |  |
| 56.9% | 48.3% | NC(Cc1ccc(Cl)cc1Cl)CN1CCC(Cc2ccccc2)CC1 (stereo not shown) |  |  |
| 66.7% | 61.1% | N[C@@H](Cc1ccccc1)CN1CCC(C(=O)c2ccc(F)cc2)CC1 |  |  |
